Assay results: patent US8933228B2, “Respiratory formulations and compounds for use therein” (Respivert, Ltd., priority 2010, dated 2015)

Columns and labels:
p38 MAPK γ (MAPK12) = p38 MAPK γ (MAPK12) (Homo sapiens (Human), UniProt P53778); test: Enzyme inhibition assay (FRET, Z-LYTE), p38 MAPK gamma; type: biochemical; details: read-out: Enzyme Profile: IC50 Values p38γ
Description: (§1) The enzyme inhibitory activity of test compounds was determined by fluorescence resonance energy transfer (FRET) using synthetic peptides labelled with both donor and acceptor fluorophores (Z-LYTE, Invitrogen). Recombinant, phosphorylated p38 MAPK γ (MAPK12:Millipore) was diluted in HEPES buffer, mixed with compound at the desired final concentrations and incubated for 2 hr at RT. The FRET peptide (2 μM) and ATP (100 μM) were next added to the enzyme/compound mixture and incubated for 1 hr. Development reagent (protease) was added for 1 hr prior to detection in a fluorescence microplate reader. The site-specific protease only cleaves non-phosphorylated peptide and eliminates the FRET signal. Phosphorylation levels of each reaction were calculated using the ratio of coumarin emission (donor) over fluorescein emission (acceptor) with high ratios indicating high phosphorylation levels and low ratios indicating low phosphorylation levels.

p38 MAPK alpha (MAPK14) = p38 MAPK alpha (MAPK14) (Homo sapiens (Human), UniProt Q16539); test: Enzyme inhibition assay (FRET, Z-LYTE), p38 MAPK alpha via MAPKAP-K2 activation; type: biochemical; details: read-out: Enzyme Profile: IC50 Values p38α
Description: as §1
For p38 MAPK alpha (MAPK14: Invitrogen), enzyme activity was evaluated indirectly by determining activation/phosphorylation of the down-stream molecule, MAPKAP-K2. The p38 MAPK a protein was mixed with compound for 2 hr at RT. […] Development reagent was then added and the mixture incubated for 1 hr before detection by fluorescence completed the assay protocol.
The enzyme inhibitory activity of compound was determined by fluorescence resonance energy transfer (FRET) using synthetic peptides labelled with both donor and acceptor fluorophores (Z′-LYTE, Invitrogen).

[1] = system: TNFα release in d-U937 cells; test: LPS-induced TNFα release in d-U937 cells; type: cell-based; details: Homo sapiens, dU937, LPS 0.1 μg/mL, 4 hr, relative to 10 μg/mL BIRB796, read-out: d-U937 (LPS) TNFα REC50
Description: (§2) U937 cells, a human monocytic cell line, were differentiated to macrophage-type cells by incubation with phorbol myristate acetate (PMA; 100 ng/mL) for 48 to 72 hr, whereupon the cells become adherent. […] Coli: O111:B4, Sigma) for 4 hr. The supernatant was collected for determination of TNFα and IL-8 concentrations by sandwich ELISA (Duo-set, R&D systems). […] The relative 50% effective concentration (REC50) was determined from the resultant concentration-response curve. The inhibition of IL-8 production was calculated at each concentration of test compound by comparison with vehicle control.

[2] = system: Differentiated U937 cells; test: MTT assay: cell viability; type: cell-based, human; details: for d-U937 MTT Assay 4 h: 5% FCS; for d-U937 MTT Assay 24 h: 10% FCS
Description: Differentiated U937 cells were pre-incubated with each test compound under two protocols: the first for 4 hr in 5% FCS and the second in 10% FCS for 24 h. The supernatant was replaced with 200 μL of new media and 10 μL of MTT stock solution (5 mg/mL) was added to each well. After incubation for 1 hr the media were removed, 200 μL of DMSO was added to each well and the plates were shaken lightly for 1 hr prior to reading the absorbance at 550 nm. The percentage loss of cell viability was calculated for each well relative to vehicle (0.5% DMSO) treatment. Consequently an apparent increase in cell viability for drug treatment relative to vehicle is tabulated as a negative percentage.

HCK enzyme = HCK enzyme (Homo sapiens (Human), UniProt P08631); test: HCK enzyme inhibition assay (FRET, Z'-LYTE); type: biochemical; details: read-out: Enzyme Profile: IC50 Values HCK
[3] = system: IL-8 release in d-U937 cells; test: LPS-induced IL-8 release in d-U937 cells; type: cell-based; details: Homo sapiens, dU937; d-U937 cells, LPS 0.1 μg/mL, 4 hr; read-out: d-U937 (LPS) IL-8 IC50
Description: as §2

[4] = system: ICAM-1 expression in BEAS2B cells; test: Poly I:C-induced ICAM-1 induction in BEAS2B cells; type: cell-based; details: Homo sapiens, BEAS-2B; BEAS2B cells, poly I:C 1 μg/mL, 18 hr; read-out: BEAS2B (polyIC) ICAM1 IC50
Description: Poly I:C (1 μg/mL) (Invivogene Ltd., San Diego, Calif.) was transfected into BEAS2B cells (human bronchial epithelial cells, ATCC) with Oligofectamine (Invitrogen, Carlsbad, Calif.). Cells were pre-incubated with final concentrations of test compounds for 2 hr and the level of ICAM1 expression on the cell surface was determined by cell-based ELISA. […] The cells were washed with PBS-Tween and incubated with the secondary antibody (HRP-conjugated anti-rabbit IgG, Dako Ltd., Glostrup, Denmark).

HRV16 = test: Rhinovirus-titre assay; type: cell-based, human rhinovirus; details: Human rhinovirus sp., HRV16, read-out: HRV titre (inhibitory %): % inhibition observed vs. HRV16 infection control; for inhibition at 0.04 µg/mL: cell not marked b, test compounds 0.04 μg/mL per method (footnote b, 0.2 μg/mL)
Description: MRC5 cells (human lung fibroblast, ATCC) were infected with 1 MOI (multiplicity of infection of 1.0) of HRV16 and incubated for 1 hr at 33° C. with gentle shaking to stimulate adsorption. The cells were then washed with PBS, fresh media was added and the cells were incubated for a further 96 hr. The supernatant was collected and 10-fold serial dilutions of virus containing supernatant were prepared. All titrations were performed by infecting confluent Hela cell monolayers with serially diluted supernatant (10^−1-10^−5) and assessing the cytopathic effect by visual inspection 4 days after infection. The amount of virus required to infect 50% of Hela cells was calculated in each treatment as TCID50. Test compounds (0.04 μg/mL) were added 2 hr before HRV infection and 1 hr after infection when non-infected HRV was washed out. The anti-HRV activity of each test compound was determined as the difference of the log TCID50 of HRV16 in the presence of the compound with the log TCID50 of HRV16 in the absence of compound. […]

cSrc enzyme = cSrc enzyme (Homo sapiens (Human), UniProt P12931); test: c-SRC enzyme inhibition assay (FRET, Z'-LYTE); type: biochemical; details: read-out: Enzyme Profile: IC50 Values cSrc
[5] = system: TNFα release in THP-1 cells; test: LPS-induced TNFα release in THP-1 cells; type: cell-based; details: Homo sapiens; THP-1 cells, LPS 3 μg/mL, 4 hr; read-out: THP1 (LPS) TNFα IC50
Description: The inhibition of TNFα production was calculated at each concentration by comparison with vehicle control.

SMILES	IC50 (p38 MAPK γ (MAPK12)) [nM]	IC50 (p38 MAPK alpha (MAPK14)) [nM]	EC50 [1] [nM]	d-U937 MTT Assay 4 h ([2]; 1 μg/ml)	d-U937 MTT Assay 24 h ([2]; 1 μg/ml)	IC50 (HCK enzyme) [nM]	IC50 [3] [nM]	IC50 [4] [nM]	inhibition at 0.04 µg/mL (HRV16) [%]	IC50 (cSrc enzyme) [nM]	IC50 [5] [nM]	d-U937 MTT Assay 4 h ([2]; performed at 10 μg/mL)	d-U937 MTT Assay 24 h ([2]; performed at 10 μg/mL)	inhibition at 0.2 µg/mL (HRV16; cell marked b: performed at 0.2 μg/mL) [%]
COc1ccc(-n2nc(C(C)(C)C)cc2NC(=O)Nc2ccc(Oc3ccnc4[nH]c(=O)n(C)c34)c3ccccc23)cn1 [Example 24, 1-(3-(tert-butyl)-1-(6-methoxypyridin-3-yl)-1H-pyrazol-5-yl)-3-(4-((1-methyl-2-oxo-2,3-dihydro-1H-imidazo[4,5-b]pyridin-7-yl)oxy)naphthalen-1-yl)urea]	126	7	1.3	− (− and + indicate the result is below and above the no significant effect threshold, respectively (<30% inhibition at a concentration of 1 μg/ml))	− (− and + indicate the result is below and above the no significant effect threshold, respectively (<30% inhibition at a concentration of 1 μg/ml))	5	11	12	91	16	4.4	–	–	–
Cc1ccc(-n2nc(C3(C)CC3)cc2NC(=O)Nc2ccc(Oc3ccnc4[nH]c(=O)cnc34)c3ccccc23)cc1 [Example 29]	19	5	5.6	− (− and + indicate the result is below and above the no significant effect threshold, respectively (<30% inhibition at a concentration of 1 μg/ml))	− (− and + indicate the result is below and above the no significant effect threshold, respectively (<30% inhibition at a concentration of 1 μg/ml))	4	6.7	13	60	10	17	–	–	–
COc1ccc(-n2nc(C(C)(C)C)cc2NC(=O)Nc2ccc(OCc3ccnc4[nH]c(=O)cnc34)c3ccccc23)cc1 [Example 23]	193	12	30	− (− and + indicate the result is below and above the no significant effect threshold, respectively (<30% inhibition at a concentration of 1 μg/ml))	− (− and + indicate the result is below and above the no significant effect threshold, respectively (<30% inhibition at a concentration of 1 μg/ml))	22	90	23	–	35	–	–	–	–
Cc1ccc(-n2nc(C(C)(C)C)cc2NC(=O)Nc2ccc(Oc3ccnc4[nH]c(=O)cnc34)c3ccccc23)cc1 [Example 6]	72	–	1.1	− (− and + indicate the result is below and above the no significant effect threshold, respectively (<30% inhibition at a concentration of 1 μg/ml))	− (− and + indicate the result is below and above the no significant effect threshold, respectively (<30% inhibition at a concentration of 1 μg/ml))	–	5.2	11	80	9	0.7	–	–	–
COc1ccc(-n2nc(C(C)(C)C)cc2NC(=O)Nc2ccc(Oc3ccnc4[nH]c(=O)n(C)c34)c(Cl)c2Cl)cc1 [Example 13, 1-(3-(tert-Butyl)-1-(4-methoxyphenyl)-1H-pyrazol-5-yl)-3-(2,3-dichloro-4-((1-methyl-2-oxo-2,3-dihydro-1H-imidazo[4,5-b]pyridin-7-yl)oxy)phenyl)urea]	23	7	0.6	− (− and + indicate the result is below and above the no significant effect threshold, respectively (<30% inhibition at a concentration of 1 μg/ml))	+ (− and + indicate the result is below and above the no significant effect threshold, respectively (<30% inhibition at a concentration of 1 μg/ml))	4	4.6	6.2	–	5	0.6	–	–	–
CNS(=O)(=O)Cc1ccc(-n2nc(C(C)(C)C)cc2NC(=O)Nc2ccc(Oc3ccnc4[nH]c(=O)cnc34)c3ccccc23)cc1 [Example 26, 1-(4-(3-(tert-butyl)-5-(3-(4-((3-oxo-3,4-dihydropyrido[2,3-b]pyrazin-8-yl)oxy)naphthalen-1-yl)ureido)-1H-pyrazol-1-yl)phenyl)-N-methylmethanesulfonamide]	29	7	1.9	− (− and + indicate the result is below and above the no significant effect threshold, respectively (<30% inhibition at a concentration of 1 μg/ml))	− (− and + indicate the result is below and above the no significant effect threshold, respectively (<30% inhibition at a concentration of 1 μg/ml))	3	1.6	207	–	13	75	–	–	–
Cc1ccc(-n2nc(C(C)(C)C)cc2NC(=O)Nc2ccc(OCCN3CCOCC3)c3ccccc23)cc1 [BIRB 796, 1-(3-tert-butyl-1-p-tolyl-1H-pyrazol-5-yl)-3-(4-(2-morpholinoethoxy)naphthalen-1-yl)urea, reference compound]	–	–	4.8	–	–	–	> 1890	3530	–	–	4.1	− ^d (− and + indicate the result is below and above the no significant effect threshold, respectively (<30% inhibition at a concentration of 1 μg/ml))	− ^d (− and + indicate the result is below and above the no significant effect threshold, respectively (<30% inhibition at a concentration of 1 μg/ml))	28
